Laboratory results as given in patent US7745390B2, “Antimicrobial peptides” (priority 2005, dated 2010).
Ends that are not written are not given here.

Legend:
Salmonella = type: cell-based, S. typhimurium; details: pH 7.2
Description: (§1) The experiments described above characterizing the activity of granulysin peptides G1-G18 relied on counting bacterial colonies on plates. This assay is quite labor intensive and would not allow evaluation of many different compounds on a number of different microbes. Therefore, we optimized an assay in which the entire procedure could be completed in a single microtiter well. Briefly, peptides are diluted in 10 mM phosphate buffer, pH 7.2 supplemented with 0.03% LB (J. Sambrook, D. W. Russell, Molecular Cloning: A Laboratory Manual (Cold Spring Harbor Laboratory Press, New York, ed. 3, 2001) pg. A2.2, Retrieved from http://openwetware.org/wiki/LB) and 25 μl is added to microtiter wells. Bacteria (25 μl) are added (˜5×10^6 colony forming units/ml) in the same buffer. After a 3-hour incubation at 37° C., 150 μl of LB is added and the plates are incubated overnight. The OD at 600 nm is read on an ELISA plate reader. The minimum inhibitory concentration (MIC) is the lowest concentration allowing no bacterial growth. The IC50 is the concentration of peptide that results in 50% growth compared to the medium.
(§2) We now describe additional peptides and their activity. The peptides have been designed, synthesized, and have been tested for lysis of E. coli and S. typhimurium (gram negative bacteria), B. cereus (gram positive bacterium). Results are shown in Table 2 along with the amino acid sequence of the peptide. Changes from the naturally occurring sequence are underlined. In general, the desired result is lysis of bacteria at low concentration (<1 μM).
(§3) In Table 2, Columns 2-7 are the MIC and IC50 (concentration required for 50% inhibition of growth) for each organism (E. coli, Salmonella, and B. cereus). The MIC (minimum inhibitory concentration) was determined as described above, in a multiwell plate assay. […] L-isomer amino acids are designated by capital letters while D-isomer amino acids are designated by lower case letters.

E. coli DH5a = type: cell-based; details: DH5a, pH 7.2
Description: as §1, §2, §3

B. cereus = type: cell-based; details: pH 7.2
Description: as §1, §2, §3

| Sequence | IC50 (Salmonella) [µM] | Salmonella MIC (Salmonella) [µM] | E. coli DH5a MIC (E. coli DH5a) [µM] | IC50 (E. coli DH5a) [µM] | B. cereus MIC (B. cereus) [µM] | IC50 (B. cereus) [µM] |
| --- | --- | --- | --- | --- | --- | --- |
| KKVSKKFMKKGSKKVSKKFMKKGSKKVSKKFMKK [Peptide G11.25] | 0.1 | 0.15 | 0.15 | 0.1 | 0.15 | 0.1 |
| KKVSKKFMKKYQSKVIQGLV [Peptide G12.9] | 0.85 | 1.4 | 1.35 | 0.49 | 5.6 | 3.51 |
| QKSVSKAATKVSKTGKSKW [Peptide G13.9, QKSVSKAATKVSKTGKSKW] | > 10 | >10 | 1.45 | 0.89 | >10 | 7.7 |
| QRAVANAATRVARTGRARWRDVARRFMRR [Peptide G8.6] | 0.43 | 0.7 | 0.7 | 0.45 | 1.5 | 0.89 |
| QRAVARAATRVARTGRARW [Peptide G13.6, QRAVARAATRVARTGRARW] | 7.48 | >10 | 2.8 | 1.65 | >10 | 7.7 |
| QRAVARAATRVARTGRARWRDVARNFMRR [Peptide G8.5] | 0.42 | 0.7 | 1.4 | 0.88 | 1.4 | 0.88 |
| QRAVARAATRVARTGRARWRDVARRFMRR [Peptide G8.7] | 0.42 | 0.7 | 1.4 | 0.85 | 0.7 | 0.45 |
| QRAVARAATRVARTGRARWRRVARRFMRR [Peptide G8.10] | 0.21 | 0.35 | 0.63 | 0.45 | 0.75 | 0.45 |
| QRRSSRFMRRYQRVVPRGLV [Peptide G12.24] | 0.7 | 1.4 | 0.8 | 0.42 | 0.8 | 0.42 |
| QRSVSNAATRVCRT [Peptide G10, QRSVSNAATRVCRT, reference compound] | > 10 | >10 | >10 | > 10 | >10 | > 10 |
| QRSVSNAATRVSRTGRSRWRDVSRRFMRR [Peptide G8.3] | 0.45 | 0.67 | 0.7 | 0.55 | 1.25 | 0.7 |
| QRSVSNPPTRVSRPPRSRWRDVSRPPMRR [Peptide G8.16] | > 10 | >10 | 0.7 | 0.4 | >10 | 7.3 |
| QRSVSRAATRVCRTGRSNW [Peptide G13.10, QRSVSRAATRVCRTGRSNW] | > 10 | >10 | 0.71 | 0.25 | 5.6 | 3.5 |
| QRSVSRAATRVSRTGRSNWRDVGRRFMRR [Peptide G8.15] | 0.41 | 0.7 | 0.8 | 0.45 | 0.7 | 0.45 |
| QRSVSRAATRVSRTGRSRW [Peptide G13.2, QRSVSRAATRVSRTGRSRW] | 7.3 | >10 | 1.37 | 0.85 | 5.6 | 3.4 |
| QRSVSRAATRVSRTGRSRWRDVSRNFMRR [Peptide G8.2] | 0.55 | 1.4 | 1.4 | 0.58 | 1.39 | 0.51 |
| QRSVSRAATRVSRTGRSRWRDVSRRFMRR [Peptide G8.4] | 0.21 | 0.35 | 0.7 | 0.45 | 0.7 | 0.45 |
| QRSVSRAPTRVSRTGRSRW [Peptide G13.8, QRSVSRAPTRVSRTGRSRW] | > 10 | >10 | 5.7 | 3.3 | >10 | 7.7 |
| QRSVSRPPTRVSRPPRSRW [Peptide G13.13, QRSVSRPPTRVSRPPRSRW] | 1.4 | >10 | 5.1 | 0.38 | >10 | > 10 |
| QRSVSRPPTRVSRTGRARW [Peptide G13.12, QRSVSRPPTRVSRTGRARW] | > 10 | >10 | 5.65 | 1.75 | >10 | > 10 |
| QRSVSRPPTRVSRTGRSRW [Peptide G13.11, QRSVSRPPTRVSRTGRSRW] | > 10 | >10 | 5.75 | 2.72 | >10 | > 10 |
| RDVARRFMRRQSRVISRLV [Peptide G12.15, RDVARRFMRRQSRVISRLV] | 0.42 | 0.69 | 1.4 | 0.89 | 2.8 | 1.75 |
| RDVCRNFMRR [Peptide G11, RDVCRNFMRR, reference compound] | > 10 | >10 | >10 | > 10 | >10 | > 10 |
| RDVSRRFMRRGRDVSRRFMRR [Peptide G11.38] | 0.82 | 1.35 | 0.7 | 0.42 | 1.4 | 0.89 |
| RDVSRRFMRRQSRVIQGLV [Peptide G12.3, RDVSRRFMRRQSRVIQGLV] | 3.5 | 5.5 | 5.7 | 3.51 | >10 | 7.7 |
| RDVSRRFMRRRDVSRRFMRR [Peptide G11.39] | 1.7 | 2.75 | 0.7 | 0.22 | 0.7 | 0.45 |
| RRDSRRFMRR [Peptide G11.11, RRDSRRFMRR] | > 10 | >10 | >10 | 7.45 | >10 | > 10 |
